Results published in US20050042318A1, “Extracts from hop, methods for producing the same and their use” (priority 2001, published 2005).

How the values were obtained:
[1] = target: T1, human oestrogenic receptor alpha (ER-α) (Homo sapiens, UniProt P03372); test: competitive receptor binding assay, displacement of radioactively labelled oestradiol, ER-α; conditions: for relative potency [formula] (ratio ER-α to ER-β): head is a formula, values fit relative potency ER-α / ER-β
T1 sequence (P03372 1-595): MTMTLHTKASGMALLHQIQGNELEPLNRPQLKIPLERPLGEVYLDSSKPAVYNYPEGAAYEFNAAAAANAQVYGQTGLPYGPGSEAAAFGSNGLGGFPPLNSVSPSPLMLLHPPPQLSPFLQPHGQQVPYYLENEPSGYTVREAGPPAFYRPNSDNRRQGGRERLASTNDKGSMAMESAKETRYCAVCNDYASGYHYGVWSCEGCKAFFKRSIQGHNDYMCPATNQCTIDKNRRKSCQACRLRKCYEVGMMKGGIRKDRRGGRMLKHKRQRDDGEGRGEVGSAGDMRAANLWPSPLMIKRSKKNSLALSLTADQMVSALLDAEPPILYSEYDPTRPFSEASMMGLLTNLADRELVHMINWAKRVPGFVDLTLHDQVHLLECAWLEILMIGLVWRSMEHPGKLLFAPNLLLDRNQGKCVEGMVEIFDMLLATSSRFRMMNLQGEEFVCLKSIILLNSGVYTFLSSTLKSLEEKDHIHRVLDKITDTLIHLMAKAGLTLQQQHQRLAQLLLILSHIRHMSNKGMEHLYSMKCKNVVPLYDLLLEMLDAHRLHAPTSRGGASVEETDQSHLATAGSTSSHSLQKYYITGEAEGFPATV
Method: Thereby, a radioactively labelled oestradiol was initially bonded to the human oestrogen receptor and then treated with the test substance to be examined. A portion of the labelled oestradiol which corresponds to the oestrogenic potency of the sample is thus displaced. Excessive oestradiol is washed out after bonding of the complex to hydroxylapatite. The oestrogenic receptors ER-α and ER-β were commercially available as recombinant human receptors. The test preparations consisted of 1000 μl TEDG buffer (10 mM tris, 1,5 mM EDTA, 10% glycerol, pH 7.5), 5 μl receptor (200 nM), 10 μl 3H-oestradiol and 10 μl ethanol (control value), 10 μl diethylstiloestrol (100 mM, positive control) or 10 μl extract or ingredient of the extract, respectively. The preparations were carefully mixed and incubated for about 16 hours at room temperature in the dark. After incubation 250 μl hydroxylapatite (HAP) were added to absorb the proteins. During a period of incubation of 15 minutes the preparations were manually mixed with a time-lag of 5 minutes, respectively. The precipitate is separated by centrifugation at 10,000 rpm for a few seconds and the supernatant liquid is separated by pipetting. The pellet is washed three times with 1000 μl TEDG buffer, respectively, 1000 μl ethanol are added for the measurement, the mixture is slurried and transferred to a scintillation vial. After adding 9 ml scintillator liquid (Ready Safe, Beckmann) a measurement over the complete ^3H window is carried out using a Beckmann Beta-Counter.
The characterisation of the bonding capacities of the test substances results from the determination of the ED50 values taken from the dosis-effect-plots of the displacement of oestradiol.

[2] = target: T2, human oestrogenic receptor (Homo sapiens, UniProt P03372); conditions: Milligan et al.; cited from earlier work
T2 construct: host or cells: yeast cells
T2 sequence (P03372 1-595): T1 sequence (P03372 1-595)

[3] = tested on: ovariectomised rats; conditions: Miyamoto et al. 1998; cited from earlier work
[4] = tested on: Ishikawa-Var-I-cells; conditions: cited from earlier work
[5] = tested on: colon cancer cell lines HAT-29; conditions: Miranda et al. 1999; cited from earlier work
[6] = tested on: ovarian cancer cell lines A-2780; conditions: Miranda et al. 1999; cited from earlier work
[7] = tested on: human breast cancer cells MCF-7; conditions: Miranda et al. 1999; cited from earlier work
[8] = tested on: osteolysis; conditions: EP 0 679 393 B1; cited from earlier work

| SMILES | relative potency [formula] (ratio ER-α to ER-β) [1] | oestrogenic activity, human oestrogenic receptor in yeast [2] | antiproliferative activity [5] | interaction with ER-α, in words [1] | antiproliferative activity [6] | antiproliferative activity [7] | other results |
| --- | --- | --- | --- | --- | --- | --- | --- |
| CC(C)=CCc1c(O)cc2c(c1O)C(=O)C[C@@H](c1ccc(O)cc1)O2 | 0.37 | weaker oestrogenic properties | – | – | – | – | – |
| CC(C)=CCc1c(O)cc(O)c2c1O[C@H](c1ccc(O)cc1)CC2=O | 2.72 | most powerful oestrogenic activity | – | – | – | – | osseous density [3]: normalises; weight of the uterus [3]: normalises; oestrogenic activity in vitro, stimulating alkaline phosphatase ([4]; Ishikawa-Var-I-cells, Milligan et al. 1999): significantly more active than the phytooestrogenes known so far |
| CC(C)=CCc1c(O)c(CC=C(C)C)c2c(c1O)C(=O)C[C@@H](c1ccc(O)cc1)O2 [6,8-diprenylnaringenine] | – | weaker oestrogenic properties | – | – | – | – | – |
| CC(C)=CCC/C(C)=C/Cc1c(O)cc(O)c2c1O[C@H](c1ccc(O)cc1)CC2=O [8-geranylnaringenine] | – | weaker oestrogenic properties | – | – | – | – | – |
| COc1cc(O)c(CC=C(C)C)c2c1C(=O)CC(c1ccc(O)cc1)O2 (stereo not shown) [Isoxanthohumol, isoxanthohumol] | 0.54 | – | strong antiproliferative activity | comparable activity | strong antiproliferative activity | strong antiproliferative activity | – |
| COc1cc(O)c(CC=C(C)C)c(O)c1C(=O)/C=C/c1ccc(O)cc1 [Xanthohumol] | 0.78 | could not be detected | strong antiproliferative activity | comparable activity | strong antiproliferative activity | strong antiproliferative activity | effect on osteolysis [8]: inhibiting effect; oestrogenic activity in human endometrial carcinoma cell line Ishikawa ([4]; Milligan et al.): could not be detected |
